Experiments:
[1] = test system: 6-OHDA-lesioned juvenile rats; test: Locomotor activity of juvenile rats with neonatal 6-OHDA lesions (model of ADHD); assay type: in vivo, rat
Description: The behavioral effects of (1R,5S)-(+)-1-(naphthalen-2-yl)-3-azabicyclo[3.1.0]hexane were evaluated in a model of ADHD, which can be simulated in juvenile rates with neonatal 6-hydroxydopamine (6-OHDA) lesions (Davids et al., 2003). In this animal model, the NE neurons are protected from the neurotoxic effects of 6-OHDA by pretreatment with the NE transporter inhibitor desipramine, so the NE system is largely intact and can respond to NE transporter inhibitors (Davids et al., 2002). Furthermore, the 6-OHDA lesions produce learning and memory deficits in learning models including the T maze, and active and passive avoidance tasks (Shaywitz et al., 1978; Wool et al., 1987; Takasuna and Iwasaki, 1996). Performance in these learning and memory models was improved by administration of stimulants (Shaywitz et al., 1978; Wool et al., 1987). Thus, this model incorporates both hyperactivity and learning deficits found in ADHD.
(§1) Methods of lesioning neonatal rats with 6-OHDA were carried out as detailed in Zhang et al. (2001). Briefly, on postnatal day 1 (PD 1), male Sprague-Dawley rat pups were randomly assigned to a nursing dam (10/dam). On PD 5, pups receive a subcutaneous injection of 25 mg/kg desipramine hydrochloride to protect noradrenergic neurons, followed in 45 min. by randomly assigned intracisternal injection of vehicle or 6-OHDA hydrobromide (100 μg free base) under hypothermic anesthesia. Pups were returned to nursing dams immediately after the intracranial injections. Locomotor activity was monitored individually for 90 min. in the periadolescent period on PD 25, using a microcomputer controlled infrared photobeam activity monitoring system. Locomotor activity was defined as breaking of consecutive photobeams and the activity accumulated in 5 minute bins. Behavioral testing was conducted in a novel environment (transparent plastic cages containing fresh bedding) within a grid of horizontal infrared beams. Each dose of (1R,5S)-(+)-1-(naphthalen-2-yl)-3-azabicyclo[3.1.0]hexane (1, 3 and 10 mg/kg) or methylphenidate (3 mg/kg) was dissolved in saline and given i.p. immediately prior to testing. The effects of sham versus 6-OHDA lesions on dopamine neurons in rats were quantified as decrements of DA transporters labeled with [31-1]2-(3-carbomethoxy-3-β-[4′-iodophenyl]tropane ([^3H]β-CIT), a selective DA transporter radioligand (Kula et al. 1999). Sections were preincubated (60 min., room temp [RT]) in 50 mM Tris-HCl buffer (pH 7.7) containing 120 mM NaCl and 4 mM MgCl2, then in fresh buffer (60 min) containing 2 nM [3H](3-CIT. Nonspecific binding was defined with 1 μM GBR-12909. Slides were then washed (2×5 min) in ice-cold buffer, dipped in ice-cold water, and air-dried. Radiolabeled slides and calibrated [^3H]standards were exposed to [^3H]sensitive films for 10-14 d at 4° C. Tritium-sensitive Hyperfilms were developed and fixed in Kodak D-19 for 5 min. at RT. Images were quantified with a computer-controlled MCID image analyzer. Brain regions of interest were outlined and their optical density was measured with two sections representing total binding, with two samples representing nonspecific binding. Optical density of sampled regions was measured and the amount of ligand bound within each area was calculated as nCi/mg tissue. Mean values of non-specific binding in each region were subtracted from the mean total binding to determine specific binding, which was converted into fmol/mg of radioligand bound.

dopamine transporters = test: Autoradiographic binding of [3H]β-CIT to dopamine transporters in juvenile rat brain after neonatal 6-OHDA lesioning; assay type: in vivo; conditions: for specific binding of [3H]β-CIT to dopamine transporters, 6-OHDA Lesioned: mean ± SEM
Description: as §1

SMILES: NCCc1cc(O)c(O)cc1O [6-OHDA, 6-hydroxydopamine]
- cumulative locomotor score ([1]; 6-OHDA-lesioned rats, PD 25, 90 minute testing period): 2758±3.0
- fold difference of cumulative locomotor score versus sham-lesioned rats ([1]; PD 25, 90 minute testing period, p<0.001): 9 fold
- % Sham Lesion, binding of [3H]β-CIT (dopamine transporters; lateral caudate-putamen): 25.7%
- specific binding of [3H]β-CIT to dopamine transporters, 6-OHDA Lesioned (dopamine transporters; lateral caudate-putamen): 30.9 ± 2.4 fmol/mg tissue
- % Sham Lesion, binding of [3H]β-CIT (dopamine transporters; medial caudate-putamen): 22.2%
- specific binding of [3H]β-CIT to dopamine transporters, 6-OHDA Lesioned (dopamine transporters; medial caudate-putamen): 24.9 ± 3.5 fmol/mg tissue
- % Sham Lesion, binding of [3H]β-CIT (dopamine transporters; nucleus accumbens septi): 32.2%
- specific binding of [3H]β-CIT to dopamine transporters, 6-OHDA Lesioned (dopamine transporters; nucleus accumbens septi): 22.8 ± 1.8 fmol/mg tissue

SMILES: COC(=O)C(c1ccccc1)C1CCCCN1 (stereo not shown) [methylphenidate, reference compound]
- locomotor activity (FIGS. 7A and 7B) ([1]; 6-OHDA-lesioned juvenile rats at PD25, p<0.05 versus vehicle): reduced locomotor activity
- time over which locomotor activity was significantly attenuated ([1]; methylphenidate 3 mg/kg i.p., PD 25, 90 min test): 90 min

Source: patent publication US12042481B2, “Use of (1R,5S)-(+)-1-(naphthalen-2-yl)-3-azabicyclo[3.1.0]hexane in the treatment of conditions affected by monoamine neurotransmitters” (priority 2011, dated 2024)
